Results taken from patent US6410249B1, “Odorant receptors” (priority 1999, dated 2002).
Where two headings read alike, the source gives them in different places.

Assays:
receptor 5.24 = molecular target: T1, receptor 5.24 (Carassius auratus, UniProt Q9PW88); assay: 3H-L-arginine saturation binding to membranes of receptor 5.24-expressing HEK 293 cells; design: species or system goldfish
T1 construct: The receptor 5.24 full length cDNA detects 1-2 bands in genomic DNA blots; expressed in transfected cells; host or cells: HEK 293 cells expressing SV40 large T antigen (293-TSA)
T1 sequence (Q9PW88 25-877): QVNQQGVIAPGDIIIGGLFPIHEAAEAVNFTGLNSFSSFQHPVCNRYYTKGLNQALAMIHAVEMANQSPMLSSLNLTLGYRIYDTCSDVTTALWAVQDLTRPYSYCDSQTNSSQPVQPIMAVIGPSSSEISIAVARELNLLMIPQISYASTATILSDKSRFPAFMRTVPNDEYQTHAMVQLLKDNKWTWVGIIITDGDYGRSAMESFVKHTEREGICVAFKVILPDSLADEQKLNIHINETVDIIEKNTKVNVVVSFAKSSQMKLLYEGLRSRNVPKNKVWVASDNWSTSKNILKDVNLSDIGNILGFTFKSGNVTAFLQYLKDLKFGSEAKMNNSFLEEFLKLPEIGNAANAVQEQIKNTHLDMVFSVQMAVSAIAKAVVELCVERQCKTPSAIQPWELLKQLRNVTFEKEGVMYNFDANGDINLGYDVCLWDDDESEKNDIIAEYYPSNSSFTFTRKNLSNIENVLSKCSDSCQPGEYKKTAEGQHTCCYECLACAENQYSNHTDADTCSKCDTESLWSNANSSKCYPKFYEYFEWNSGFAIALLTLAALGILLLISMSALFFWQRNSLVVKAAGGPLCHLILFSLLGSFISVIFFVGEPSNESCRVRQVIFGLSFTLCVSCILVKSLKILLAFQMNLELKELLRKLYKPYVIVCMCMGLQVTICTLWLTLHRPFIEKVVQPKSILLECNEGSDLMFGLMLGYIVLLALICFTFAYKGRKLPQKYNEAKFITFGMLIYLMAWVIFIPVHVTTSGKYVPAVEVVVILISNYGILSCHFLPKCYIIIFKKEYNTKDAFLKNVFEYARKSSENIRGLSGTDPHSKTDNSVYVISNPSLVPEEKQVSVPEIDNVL
Source text: High-Affinity Binding of Radiolabeled L-Arginine to the Cloned Goldfish Odorant Receptor. To determine the affinity of the cloned goldfish amino acid receptor for basic amino acids, we characterized the ligand-receptor interaction by radiolabeled ligand binding to receptors expressed in mammalian cells. Human embryonic kidney (HEK) 293 cells were transfected with expression plasmids containing the receptor 5.24 cDNA insert. […] We next wished to determine what second messenger pathway receptor 5.24 couples to in HEK 293 cells. Control cells or cells expressing receptor 5.24 were exposed to varying concentrations of arginine and assayed for the accumulation of IP3 and cAMP.
Mammalian Cell Culture and DNA Transfections. For cell transfections, the receptor 5.24 cDNA insert was subcloned into two expression vectors: CMVI, which utilizes a human cytomegalovirus (CMV) immediate early promoter-enhancer plus the CMV intron A sequence to drive expression, and 608RX-2.2L, which is similar to CMVI except the cDNA insert is followed by an internal ribosome entry site (IRES)—enhanced green fluorescent protein (EGFP) coding sequence; 608RX-2.2L also contains a puromycin resistance gene. For transient assays, HEK 293 cells expressing the SV40 large T antigen (293 TSA cells) were transfected with the CMVI-receptor 5.24 or CMVI control plasmid using lipofectamine (Life Technologies) and harvested at 48 hours for membrane preparations. For stable cell lines, 293-TSA cells were transfected with the 608RX-2.2L-receptor 5.24 plasmid or a control 608RX-2.2L plasmid and selected in puromycin. Colonies showing high levels of EGFP fluorescence (as judged by epifluorescence microscopy) were picked, expanded, and screened for 3H-L-arginine binding (see below). In five independent receptor 5.24-transfected stable cell lines, receptor densities (Rt) varied between 0.5 and 6.0 pmol L-arginine binding sites/mg membrane protein. […] All competition binding assays and signal transduction studies were performed using the stable cell line 5.24-20 (Rt=2.0 pmol /mg) and a control cell line (2.2-9) stably transfected with vector alone (Rt=0.03 pmol/mg).
Membrane Preparations and Ligand Binding Assays. Membranes for ligand binding assays were prepared by washing confluent cells three times with phosphate buffered saline (PBS), detaching cells with a PBS-based enzyme-free dissociation solution, and resuspending cells in ice-cold 5.0 mM Hepes, pH 7.4, 1.0 mM EDTA, 1.0 μg/ml leupeptin, 0.5 mM PMSF. All subsequent manipulations were performed on ice. After a 30 min incubation, the cell suspension was homogenized and centrifuged at 100,000×g for 30 min. Cell membrane pellets were washed twice by resuspension and centrifugation in binding buffer (20 mM Hepes, pH 7.4, 1.0 mM EDTA, 2.0 mM MgCl2, 1.0 μg/ml leupeptin, 0.5 mM PMSF), resuspended in binding buffer, and frozen at −80° C.
Saturation binding assays were performed using 20-25 μg of membrane protein in a final volume of 100 μl binding buffer and increasing concentrations of [2,3-3H] L-arginine (specific activity=40 Ci/mmol; Dupont NEN). Non-specific binding was measured in the presence of 500 μM unlabeled L-arginine. Competition assays were performed with 500 nM [2,3-3H] […] Filters were washed three times with 4.0 ml ice cold 20 mM Hepes, pH 7.4, and retained radioactivity was measured by scintillation counting. […] Data were analyzed by nonlinear curve fitting using Origin software (Microcal). […]

[1] = tested on: goldfish olfactory system; settings: cited from earlier work

SMILES: N=C(N)NCCC[C@H](N)C(=O)O [L-Arginine]
- Kd (receptor 5.24; mean±SEM, n=4, read-out: dissociation constant (Kd)): 121 ± 33 nM
- Hill coefficient (receptor 5.24; mean±SEM, n=4 determinations): 0.95±0.07
- Kd (receptor 5.24; range of n=4 determinations, read-out: dissociation constant (Kd), range): 52 to 207 nM
- Kd (receptor 5.24; summary statement, read-out: Kd (high affinity interaction)): ~100 nM
- in vivo threshold sensitivity [1]: ca. 1 nM
